{"source": "paper PMC12006171", "about": "“Marsupial cathelicidins: characterization, antimicrobial activity and evolution in this unique mammalian lineage” (Frontiers in Immunology, 2025)", "key": {"[1]": {"test_system": "Staphylococcus aureus clinical isolate - animal", "assay": "microbe, parasite or virus in culture", "type": "cell-based", "method_in_brief": "(§1)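 Bacteria at a final 5 x 10^5 CFU/mL were incubated 20–24 h at 35 °C with DMSO-solubilized peptides serially diluted to 64–0.125 μg/mL in Mueller Hinton broth (± lysed horse blood, ± divalent cations). MIC read as no visible growth; bactericidal action from colony counts compared with the inoculum.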"}, "[2]": {"test_system": "Escherichia coli clinical isolate - animal", "assay": "microbe, parasite or virus in culture", "type": "cell-based", "method_in_brief": "as §1"}, "[3]": {"test_system": "Escherichia coli ATCC 25922", "assay": "microbe, parasite or virus in culture", "type": "cell-based", "method_in_brief": "as §1"}, "[4]": {"test_system": "Staphylococcus aureus ATCC 29213", "assay": "microbe, parasite or virus in culture", "type": "cell-based", "method_in_brief": "as §1"}, "[5]": {"test_system": "Pseudomonas aeruginosa clinical isolate - animal", "assay": "microbe, parasite or virus in culture", "type": "cell-based", "details": "clinical isolate - animal; read-out: MIC P. aeruginosa", "method_in_brief": "as §1"}, "[6]": {"test_system": "Pseudomonas aeruginosa ATCC 27853", "assay": "microbe, parasite or virus in culture", "type": "cell-based", "details": "ATCC 27853; read-out: MIC P. aeruginosa ATCC", "method_in_brief": "as §1"}, "[7]": {"test_system": "Streptococcus pneumoniae ATCC 49619", "assay": "microbe, parasite or virus in culture", "type": "cell-based", "details": "ATCC 49619; read-out: MIC S. pneumoniae ATCC", "method_in_brief": "(§2)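 MIC defined as lowest peptide level preventing visible growth after 20–24 h at 35°C. Candida tested in RPMI-1640 MOPS; bacteria in Mueller Hinton broth, optionally with 10% lysed horse blood and/or divalent cations. Final peptide range 64-0.125 μg/mL, starting inoculum 5 x 10^5 CFU/mL, per CLSI M07-A/M26A.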"}, "[8]": {"test_system": "Streptococcus agalactiae ATCC 12386", "assay": "microbe, parasite or virus in culture", "type": "cell-based", "details": "ATCC 12386; read-out: MIC S. agalactiae ATCC", "method_in_brief": "as §2"}, "[9]": {"test_system": "Streptococcus agalactiae Clinical isolate - animal", "assay": "microbe, parasite or virus in culture", "type": "cell-based", "details": "clinical isolate - animal; read-out: MIC S. agalactiae", "method_in_brief": "as §2"}, "S. aureus ATCC 29213": {"test_system": "S. aureus ATCC 29213", "assay": "Killing kinetics (time kill assay)", "type": "cell-based, Staphylococcus aureus", "details": "MHB, 35°C, sampled 1-24 hours, n = 2", "method": "The killing kinetics assay was conducted using mid-logarithmic phase cultures of E. coli ATCC 25922 and S. aureus ATCC 29213 in MHB. Cultures were adjusted to a 0.5 McFarland standard, diluted in MHB, and then 100µL was added to each culture tube containing 10mL pre-warmed MHB to give a final inoculum concentration of 5 x 10^5 CFU/mL. A sterility control of 100uL MHB, growth control (no cathelicidin), and vehicle control (DMSO) were also included. Furthermore, 10uL was immediately removed from the growth control tube, diluted 1/1000 in saline and 100µL plated onto MHA in duplicate to confirm inoculum density. To establish colony counts from 0 hours of cathelicidin treatment, 200µL was removed from each culture tube and serially diluted ten-fold in saline from 10^0 to […] in a total volume of 200µL. Then, 10µL of each dilution was spotted onto MHA in duplicate, which were incubated at 35°C for 24 hours.\nAll culture tubes were then incubated at 35°C static. At 1, 2, 4, 6, 8, 10, 12, and 24 hours post-cathelicidin treatment, 200µL was removed from each culture tube for dilution and plated on MHA as described above. […] Counts of duplicates were averaged, and the log10 CFU/mL graphed against time. This was used as input for one-way ANOVA (p < 0.05) followed by Dunnett’s post hoc test."}, "[10]": {"test_system": "Staphylococcus aureus clinical isolate – animal, methicillin-resistant (MRSA)", "type": "cell-based", "details": "clinical isolate – animal, methicillin-resistant", "method_in_brief": "as §2"}, "[11]": {"test_system": "Staphylococcus aureus clinical isolate – animal, penicillin-resistant (PRSA)", "type": "cell-based", "details": "clinical isolate – animal, penicillin-resistant (PRSA)", "method_in_brief": "as §2"}, "[12]": {"test_system": "six bacteria (S. aureus, E. coli, P. aeruginosa; ATCC and clinical isolate)", "type": "cell-based", "details": "synthesized mature peptide; antimicrobial screening Phase I; Y/N summary over bacteria tested, broth microdilution", "method_in_brief": "as §1"}, "[13]": {"test_system": "three fungi (Candida krusei, Candida parapsilosis, Candida albicans)", "assay": "Antifungal screening, summary over the panel of fungi (broth microdilution)", "type": "cell-based", "details": "synthesized mature peptide; antimicrobial screening Phase I; Y/N summary over fungi tested, broth microdilution", "method": "Antimicrobial testing of 78 cathelicidin MPs was performed in two phases as outlined in Figure 1 . In phase I, 40 peptides (27 extant and 13 ancestral) were selected for testing based on rank (outlined above) and similarity to published marsupial cathelicidins with known antimicrobial activity ([33], [41]–[43]). These peptides were tested against nine bacteria (Staphylococcus aureus ATCC 29213 and clinical isolate, Escherichia coli ATCC 25922 and clinical isolate, Pseudomonas aeruginosa ATCC 27853 and clinical isolate, Streptococcus agalactiae ATCC 12386 and clinical isolate, Streptococcus pneumoniae ATCC 49619) and three fungi (Candida krusei ATCC 6258, Candida parapsilosis ATCC 22019, and Candida albicans clinical isolate). Details regarding these strains are available in Supplementary Table 4 . The antimicrobial activity of cathelicidins was determined as the minimum inhibitory concentration (MIC), which was the lowest concentration of cathelicidin that prevented visible bacterial or fungal growth, relative to the negative control. […] Minimum bactericidal concentration (MBC) and/or minimum fungicidal concentration (MFC) was conducted to determine microbicidal versus static action. Activity against S. aureus ATCC, E. coli ATCC, and Pseudomonas aeruginosa ATCC 27853 was examined in the presence of divalent cations to determine the impact of inhibitors.\nAntimicrobial activity was determined using a broth microdilution susceptibility assay in 96 well polypropylene plates according to Clinical Laboratory Standards Institute guidelines M07-A and M26A as described previously ([33], [42], [43]). The bacterial and fungal isolates from humans and animals used in this study are outlined in Supplementary Table 4 . Only yeasts were included in the panel of fungi as they have been used in the susceptibility testing of eutherian ([3], [81]–[83]) and other marsupial cathelicidins previously ([33], [42], [43]). Cathelicidin mature peptides were solubilized in DMSO and serially diluted in duplicate from 128-0.25μg/mL in a final volume of 100µL. For bacteria, cathelicidins were diluted in Mueller Hinton Broth (MHB) with or without 10% lysed horse blood, and with (MH II B) or without (MHB) calcium and magnesium cations. For fungi, cathelicidins were diluted in Roswell Park Memorial Institute medium (RPMI)-1640 MOPS. Ampicillin or tetracycline were included as a positive control for Gram-positive and -negative bacteria respectively, while amphotericin B was used for fungi. A media-only negative control and growth control (no cathelicidin) were also included on each plate. Bacteria were sub-cultured on Muller Hinton agar (MHA) or sheep blood agar (BA), and fungi on Sabouraud dextrose agar (SAB), 20–24 hours prior to the test. Colonies were suspended in saline, the concentration adjusted to a 0.5 McFarland standard, and then diluted in media to a concentration of 1.0 x 10^6 cells/mL. Then, 100μL was added to each well of the cathelicidin dilution plate, giving a final inoculum density of 5 x 10^5 CFU/mL and cathelicidin concentration of 64-0.125μg/mL. Colony counts were performed on MHA/BA/SAB to confirm inoculum density. All plates were incubated at 35°C for 20–24 hours, depending on the strain.\nColonies were counted and compared to the colony count of the starting inoculum."}, "[14]": {"details": "clinical isolate, MHB without cations, 5 x 10^5 CFU/mL, 35°C 20–24 hours, duplicate"}, "[15]": {"details": "clinical isolate, superscript value, cation-adjusted Mueller Hinton broth"}, "[16]": {"details": "clinical isolate, value in brackets, 99.9% reduction in CFU/mL"}}, "note": "Read-outs that look alike come from different tables or passages of the source. Where a SMILES comes first, the peptide text is derived from it."}
{"smiles": "CC[C@H](C)[C@H](NC(=O)[C@H](CCCCN)NC(=O)CNC(=O)[C@H](CC(C)C)NC(=O)CNC(=O)[C@H](CCC(N)=O)NC(=O)CNC(=O)[C@H](CC(C)C)NC(=O)[C@@H]1CCCN1C(=O)[C@H](CCCCN)NC(=O)[C@H](CCSC)NC(=O)[C@H](CC(C)C)NC(=O)[C@H](CCCCN)NC(=O)[C@H](CCCCN)NC(=O)[C@H](CCCCN)NC(=O)CNC(=O)CNC(=O)[C@H](CCCNC(=N)N)NC(=O)[C@@H](N)CCCCN)C(=O)N[C@@H](CC(C)C)C(=O)N[C@@H](CCCCN)C(=O)N[C@@H](Cc1c[nH]cn1)C(=O)N[C@@H](Cc1ccccc1)C(=O)N[C@@H](CC(N)=O)C(=O)N[C@H](C(=O)N[C@@H](CC(=O)O)C(=O)N[C@@H](Cc1ccccc1)C(=O)N[C@@H](CS)C(=O)NCC(=O)N[C@@H](CC(N)=O)C(=O)N[C@@H](CS)C(=O)O)[C@@H](C)CC", "note": "[MAP11] (H-KRGGKKKLMKPLGQGLGKILKHFNIDFCGNC-OH; N-terminus and C-terminus assumed)", "values": [{"measurement": "MBC S. aureus", "setting": "[1]; clinical isolate - animal", "result": 9.3, "unit": "µM"}, {"measurement": "MIC", "setting": "[1]; clinical isolate - animal, read-out: MIC S. aureus", "result": 9.3, "unit": "µM"}, {"measurement": "MIC", "setting": "[1]; clinical isolate - animal, read-out: MIC in the presence of cations S. aureus", "result": 4.6, "unit": "µM"}, {"measurement": "MIC S. aureus", "setting": "[1]; [14]", "result": 32, "unit": "mg/L"}, {"measurement": "MIC in the presence of cations S. aureus", "setting": "[1]; [15]", "result": 16, "unit": "mg/L"}, {"measurement": "MBC S. aureus", "setting": "[1]; [16]", "result": 32, "unit": "mg/L"}, {"measurement": "MBC E. coli", "setting": "[2]; clinical isolate - animal", "result": 9.3, "unit": "µM"}, {"measurement": "MIC", "setting": "[2]; clinical isolate - animal", "result": 9.3, "unit": "µM"}, {"measurement": "MIC in the presence of cations E. coli", "setting": "[2]; clinical isolate - animal", "result": 18.6, "unit": "µM"}, {"measurement": "MIC E. coli", "setting": "[2]; [14]", "result": 32, "unit": "mg/L"}, {"measurement": "MIC in the presence of cations E. coli", "setting": "[2]; [15]", "result": 64, "unit": "mg/L"}, {"measurement": "MBC E. coli", "setting": "[2]; [16]", "result": 32, "unit": "mg/L"}, {"measurement": "MBC E. coli ATCC", "setting": "[3]; ATCC 25922", "result": 18.6, "unit": "µM"}, {"measurement": "MIC", "setting": "[3]; ATCC 25922, read-out: MIC E. coli ATCC", "result": 9.3, "unit": "µM"}, {"measurement": "MIC", "setting": "[3]; ATCC 25922, read-out: MIC in the presence of cations E. coli ATCC", "result": 9.3, "unit": "µM"}, {"measurement": "MIC E. coli ATCC", "setting": "[3]; MHB without cations, 5 x 10^5 CFU/mL, 35°C 20–24 hours, duplicate", "result": 32, "unit": "mg/L"}, {"measurement": "MIC in the presence of cations E. coli ATCC", "setting": "[3]; superscript value, cation-adjusted Mueller Hinton broth", "result": 32, "unit": "mg/L"}, {"measurement": "MBC E. coli ATCC", "setting": "[3]; value in brackets, 99.9% reduction in CFU/mL", "result": 64, "unit": "mg/L"}, {"measurement": "MIC S. aureus ATCC", "setting": "[4]; ATCC 29213", "result": 16, "unit": "mg/L"}, {"measurement": "MIC in the presence of cations S. aureus ATCC", "setting": "[4]; superscript value, cation-adjusted Mueller Hinton broth (calcium and magnesium)", "result": 32, "unit": "mg/L"}, {"measurement": "MBC S. aureus ATCC", "setting": "[4]; value in brackets, 99.9% reduction in CFU/mL relative to starting inoculum", "result": 32, "unit": "mg/L"}, {"measurement": "MIC", "setting": "[5]", "result": ">18.6", "unit": "µM"}, {"measurement": "MIC", "setting": "[6]", "result": ">18.6", "unit": "µM"}, {"measurement": "MIC", "setting": "[7]", "result": ">18.6", "unit": "µM"}, {"measurement": "MIC", "setting": "[8]", "result": ">18.6", "unit": "µM"}, {"measurement": "MIC", "setting": "[9]", "result": ">18.6", "unit": "µM"}, {"measurement": "Number of hours to cause a significant reduction in log CFU/mL of S. aureus ATCC (p < 0.05)", "setting": "S. aureus ATCC 29213; 0.5x MIC", "result": 4, "unit": "hours"}, {"measurement": "Number of hours to cause a significant reduction in log CFU/mL of S. aureus ATCC (p < 0.05)", "setting": "S. aureus ATCC 29213; 2x MIC", "result": 2, "unit": "hours"}, {"measurement": "Number of hours to cause a significant reduction in log CFU/mL of S. aureus ATCC (p < 0.05)", "setting": "S. aureus ATCC 29213; MIC", "result": 4, "unit": "hours"}, {"measurement": "MBC MRSA", "setting": "[10]", "result": 9.3, "unit": "µM"}, {"measurement": "MIC MRSA", "setting": "[10]", "result": 9.3, "unit": "µM"}, {"measurement": "MBC PRSA", "setting": "[11]", "result": 4.6, "unit": "µM"}, {"measurement": "MIC PRSA", "setting": "[11]", "result": 4.6, "unit": "µM"}, {"measurement": "Antibacterial (MIC <64ug/mL)", "setting": "[12]", "result": "Y (Antibacterial (MIC <64ug/mL))"}, {"measurement": "Antifungal (MIC <64ug/mL)", "setting": "[13]", "result": "N (Antifungal (MIC <64ug/mL))"}]}
